Where two headings read alike, the source gives them in different places.
Columns and labels:
horseweed = assay: Test A postemergence; format: in vivo, Erigeron canadensis; settings: Erigeron canadensis, post-emergence, 240 h; for pest or weed control at 125 g/ha: 125 g ai/ha; for pest or weed control at 500 g/ha: 500 g ai/ha
Method in brief: (§1)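 Loam/sand soil; pre-em directed soil spray at planting, post-em spray at 1–2 leaf (2–10 cm). Compound in non-phytotoxic solvent + surfactant. Greenhouse 10 d; visual injury vs untreated, 0 = no effect, 100 = complete control.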

corn = assay: Test A postemergence; format: in vivo, Zea mays; settings: Zea mays, post-emergence, 240 h; for Corn plant response rating (crop injury, 0 = no effect, 100 = complete kill) at 500 g/ha: 500 g ai/ha
Method in brief: as §1

kochia [1] = assay: Test A postemergence; format: in vivo, Bassia scoparia; settings: Bassia scoparia, post-emergence, 240 h; for pest or weed control at 125 g/ha: 125 g ai/ha; for pest or weed control at 500 g/ha: 500 g ai/ha
Method in brief: as §1

ducksalad = assay: Test B flooded paddy test; format: in vivo, Heteranthera limosa; settings: Heteranthera limosa, 312 h, 250 g ai/ha, Flood, 13 days, 0 to 100 scale (0 no effect, 100 complete control); read-out: Plant response rating, Ducksalad
Method in brief: (§2)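 Visual scores from 0 (no effect) to 100 (complete kill) were assigned 13 days after treatment by comparison with controls. Seedlings had been treated at two leaves by adding compound to floodwater standing 3 cm deep, kept at that level in the greenhouse.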

kochia [2] = assay: Test A preemergence; format: in vivo, Bassia scoparia; settings: Bassia scoparia, pre-emergence, 240 h, read-out: Plant response rating, Kochia; for pest or weed control at 125 g/ha: 125 g ai/ha, visual injury after 10 days, 0 to 100 scale, 0 is no effect, 100 is complete control; for pest or weed control at 500 g/ha: 500 g ai/ha, 0 to 100 scale (0 no effect, 100 complete control), 10 days
Method in brief: as §1

blackgrass [3] = assay: Test A preemergence; format: in vivo, Alopecurus myosuroides; settings: Alopecurus myosuroides, pre-emergence, 240 h, read-out: Plant response rating, Blackgrass; for pest or weed control at 125 g/ha: 125 g ai/ha, visual injury after 10 days, 0 to 100 scale, 0 is no effect, 100 is complete control; for pest or weed control at 500 g/ha: 500 g ai/ha, 0 to 100 scale (0 no effect, 100 complete control), 10 days
Method in brief: as §1

barnyardgrass = assay: Test B flooded paddy test; format: in vivo, Echinochloa crus-galli; settings: Echinochloa crus-galli, 312 h, 250 g ai/ha, Flood, 13 days, 0 to 100 scale (0 no effect, 100 complete control); read-out: Plant response rating, Barnyardgrass
Method in brief: as §2

blackgrass [4] = assay: Test A postemergence; format: in vivo, Alopecurus myosuroides; settings: Alopecurus myosuroides, post-emergence, 240 h; for pest or weed control at 125 g/ha: 125 g ai/ha; for pest or weed control at 500 g/ha: 500 g ai/ha
Method in brief: as §1

goosegrass = assay: Test A preemergence; format: in vivo, Eleusine indica; settings: Eleusine indica, pre-emergence, 240 h, read-out: Plant response rating, Goosegrass; for pest or weed control at 125 g/ha: 125 g ai/ha, visual injury after 10 days, 0 to 100 scale, 0 is no effect, 100 is complete control; for pest or weed control at 500 g/ha: 500 g ai/ha, 0 to 100 scale (0 no effect, 100 complete control), 10 days
Method in brief: as §1

rice = assay: Test B flooded paddy test; format: in vivo, Oryza sativa; settings: Oryza sativa, 312 h; 250 g ai/ha, Flood, 13 days, 0 to 100 scale (0 no effect, 100 complete control); read-out: Plant response rating, Rice
Method in brief: as §2

pigweed, palmer = assay: Test A postemergence; format: in vivo, Amaranthus palmeri; settings: Amaranthus palmeri, post-emergence, 240 h; for pest or weed control at 125 g/ha: 125 g ai/ha; for pest or weed control at 500 g/ha: 500 g ai/ha
Method in brief: as §1

foxtail, giant = assay: Test A preemergence; format: in vivo, Setaria faberi; settings: Setaria faberi, pre-emergence, 240 h, read-out: Plant response rating, Foxtail, Giant; for pest or weed control at 125 g/ha: 125 g ai/ha, visual injury after 10 days, 0 to 100 scale, 0 is no effect, 100 is complete control; for pest or weed control at 500 g/ha: 500 g ai/ha, 0 to 100 scale (0 no effect, 100 complete control), 10 days
Method in brief: as §1

ryegrass, Italian = assay: Test A preemergence; format: in vivo, Lolium multiflorum; settings: Lolium multiflorum, pre-emergence, 240 h, read-out: Plant response rating, Ryegrass, Italian; for pest or weed control at 125 g/ha: 125 g ai/ha, visual injury after 10 days, 0 to 100 scale, 0 is no effect, 100 is complete control; for pest or weed control at 500 g/ha: 500 g ai/ha, 0 to 100 scale (0 no effect, 100 complete control), 10 days
Method in brief: as §1

oat, wild = assay: Test A preemergence; format: in vivo, Avena fatua; settings: Avena fatua, pre-emergence, 240 h, read-out: Plant response rating, Oat, Wild; for pest or weed control at 125 g/ha: 125 g ai/ha, visual injury after 10 days, 0 to 100 scale, 0 is no effect, 100 is complete control; for pest or weed control at 500 g/ha: 500 g ai/ha, 0 to 100 scale (0 no effect, 100 complete control), 10 days
Method in brief: as §1

[5] = postemergence, 10 days, visual injury, 0 to 100 scale (0 no effect, 100 complete control), read-out: Plant response rating, Horseweed
[6] = postemergence, 10 days, visual injury, 0 to 100 scale (0 no effect, 100 complete control), read-out: Plant response rating, Kochia
[7] = postemergence, 10 days, visual injury, 0 to 100 scale (0 no effect, 100 complete control), read-out: Plant response rating, Blackgrass
[8] = postemergence, 10 days, visual injury, 0 to 100 scale (0 no effect, 100 complete control), read-out: Plant response rating, Pigweed, Palmer

**Q.** What does the source list for C#Cc1ncn(-c2cccc(C(=O)N3C[C@H](C)Oc4c(C)cccc43)c2)n1 [Compound 64, [(2S)-2,3-Dihydro-2,8-dimethyl-4H-1,4-benzoxazin-4-yl][3-(3-ethynyl-1H-1,2,4-triazol-1-yl)phenyl]methanone]?
**A.** pest or weed control at 125 g/ha (horseweed; [5]): 0%; pest or weed control at 500 g/ha (horseweed; Postemergence, 0 to 100 scale, read-out: Plant response rating, Horseweed): 40%; Corn plant response rating (crop injury, 0 = no effect, 100 = complete kill) at 125 g/ha (corn; 125 g ai/ha, postemergence, 10 days, visual injury, 0 to 100 scale (0 no effect, 100 complete control)): 10%; Corn plant response rating (crop injury, 0 = no effect, 100 = complete kill) at 500 g/ha (corn; Postemergence, 0 to 100 scale): 80%; pest or weed control at 125 g/ha (kochia [1]; [6]): 60%; pest or weed control at 500 g/ha (kochia [1]; Postemergence, 0 to 100 scale, read-out: Plant response rating, Kochia): 80%; pest or weed control at 250 g/ha (ducksalad): 25%; pest or weed control at 125 g/ha (kochia [2]): 80%; pest or weed control at 500 g/ha (kochia [2]): 90%; pest or weed control at 125 g/ha (blackgrass [3]): 80%; pest or weed control at 500 g/ha (blackgrass [3]): 90%; pest or weed control at 250 g/ha (barnyardgrass): 0%; pest or weed control at 125 g/ha (blackgrass [4]; [7]): 40%; pest or weed control at 500 g/ha (blackgrass [4]; Postemergence, 0 to 100 scale, read-out: Plant response rating, Blackgrass): 70%; pest or weed control at 125 g/ha (goosegrass): 60%; pest or weed control at 500 g/ha (goosegrass): 100%; plant injury at 250 g/ha (rice): 0%; pest or weed control at 125 g/ha (pigweed, palmer; [8]): 30%; pest or weed control at 500 g/ha (pigweed, palmer; Postemergence, 0 to 100 scale, read-out: Plant response rating, Pigweed, Palmer): 50%; pest or weed control at 125 g/ha (foxtail, giant): 90%; pest or weed control at 500 g/ha (foxtail, giant): 100%; pest or weed control at 125 g/ha (ryegrass, Italian): 90%; pest or weed control at 500 g/ha (ryegrass, Italian): 100%; pest or weed control at 125 g/ha (oat, wild): 30%; pest or weed control at 500 g/ha (oat, wild): 70%

**Q.** COCc1ncn(-c2cccc(C(=O)N3C[C@H](C)Oc4c(C)cccc43)c2)n1 [Compound 101, [(2S)-2,3-Dihydro-2,8-dimethyl-4H-1,4-benzoxazin-4-yl][3-[3-(methoxymethyl)-1H-1,2,4-triazol-1-yl]phenyl]methanone] was tested. Which pest or weed control at 125 g/ha (horseweed; postemergence, 10 days, 0 to 100 scale (0 no effect, 100 complete control), read-out: Horseweed plant response rating) did it give?
**A.** The pest or weed control at 125 g/ha was 0%.

**Q.** And the pest or weed control at 500 g/ha (horseweed; [5])?
**A.** Its pest or weed control at 500 g/ha is 30%.

**Q.** What about the plant injury at 125 g/ha (corn; 125 g ai/ha, postemergence, 10 days, 0 to 100 scale (0 no effect, 100 complete control), read-out: Corn plant response rating) of the same compound?
**A.** Its plant injury at 125 g/ha is 70%.

**Q.** What about the Corn plant response rating (crop injury, 0 = no effect, 100 = complete kill) at 500 g/ha (corn; postemergence, 10 days, visual injury, 0 to 100 scale (0 no effect, 100 complete control)) of the same compound?
**A.** The Corn plant response rating (crop injury, 0 = no effect, 100 = complete kill) at 500 g/ha was 80%.

**Q.** What about the pest or weed control at 125 g/ha (kochia [1]; postemergence, 10 days, 0 to 100 scale (0 no effect, 100 complete control), read-out: Kochia plant response rating) of the same compound?
**A.** The pest or weed control at 125 g/ha was 70%.

**Q.** And the pest or weed control at 500 g/ha (kochia [1]; [6])?
**A.** Its pest or weed control at 500 g/ha is 80%.

**Q.** And the pest or weed control at 250 g/ha (ducksalad)?
**A.** Its pest or weed control at 250 g/ha is 55%.

**Q.** And the pest or weed control at 125 g/ha (kochia [2])?
**A.** The pest or weed control at 125 g/ha was 20%.

**Q.** What about the pest or weed control at 500 g/ha (kochia [2]) of the same compound?
**A.** The pest or weed control at 500 g/ha was 90%.

**Q.** And the pest or weed control at 125 g/ha (blackgrass [3])?
**A.** Its pest or weed control at 125 g/ha is 50%.

**Q.** What about the pest or weed control at 500 g/ha (blackgrass [3]) of the same compound?
**A.** The pest or weed control at 500 g/ha was 90%.

**Q.** What about the pest or weed control at 250 g/ha (barnyardgrass) of the same compound?
**A.** Its pest or weed control at 250 g/ha is 15%.

**Q.** What about the pest or weed control at 125 g/ha (blackgrass [4]; postemergence, 10 days, 0 to 100 scale (0 no effect, 100 complete control), read-out: Blackgrass plant response rating) of the same compound?
**A.** The pest or weed control at 125 g/ha was 70%.

**Q.** And the pest or weed control at 500 g/ha (blackgrass [4]; [7])?
**A.** Its pest or weed control at 500 g/ha is 100%.

**Q.** And the pest or weed control at 125 g/ha (goosegrass)?
**A.** The pest or weed control at 125 g/ha was 90%.

**Q.** And the pest or weed control at 500 g/ha (goosegrass)?
**A.** Its pest or weed control at 500 g/ha is 100%.

**Q.** What about the plant injury at 250 g/ha (rice) of the same compound?
**A.** The plant injury at 250 g/ha was 0%.

**Q.** What about the pest or weed control at 125 g/ha (pigweed, palmer; postemergence, 10 days, 0 to 100 scale (0 no effect, 100 complete control), read-out: Pigweed, Palmer plant response rating) of the same compound?
**A.** Its pest or weed control at 125 g/ha is 50%.

**Q.** And the pest or weed control at 500 g/ha (pigweed, palmer; [8])?
**A.** The pest or weed control at 500 g/ha was 60%.

**Q.** What about the pest or weed control at 125 g/ha (foxtail, giant) of the same compound?
**A.** The pest or weed control at 125 g/ha was 90%.

**Q.** And the pest or weed control at 500 g/ha (foxtail, giant)?
**A.** Its pest or weed control at 500 g/ha is 100%.

**Q.** And the pest or weed control at 125 g/ha (ryegrass, Italian)?
**A.** Its pest or weed control at 125 g/ha is 80%.

**Q.** What about the pest or weed control at 500 g/ha (ryegrass, Italian) of the same compound?
**A.** The pest or weed control at 500 g/ha was 90%.

**Q.** What about the pest or weed control at 125 g/ha (oat, wild) of the same compound?
**A.** Its pest or weed control at 125 g/ha is 40%.

**Q.** What about the pest or weed control at 500 g/ha (oat, wild) of the same compound?
**A.** The pest or weed control at 500 g/ha was 90%.

— patent US20260262643A1, “HERBICIDAL BENZOXAZINES” (FMC CORPORATION, priority 2022, published 2026)
